These results are taken from EP0357134B1, “Antihypertensive 3-piperidinyl-indazole derivatives” (priority 1988, dated 1990).

What all share (format): in vivo
In test [1] the test system is adult male Wistar rats. Briefly: Combined test in rats: norepinephrine (NOR) test. The settings on record: Rattus norvegicus; protection from norepinephrine-induced mortality; compound subcutaneously or orally; 1.25 mg/kg norepinephrine i.v. at 120 minutes, observed up to 60 minutes; read-out: Combined test in rats; ED₅₀ in mg/kg (NOR). As for the experimental part:
(§1) The experimental animals used in this test were adult male Wistar rats (weight 240 ± 10g). After an overnight fast, the animals were treated subcutaneously or orally with an aqueous solution of the compound under investigation (1ml/100g body weight) (time = zero) and put in isolated observation cages. […] At the end of this 1 hour period (time = 90 minutes) the same animals were injected intravenously with 40 mg/kg of tryptamine (TRY) and the presence of the typical tryptamine-induced bilateral tonic seizures and hyperaemia of the ears was noted. Two hours after pretreatment (time = 120 minutes) finally, the same animals were challenged with 1.25 mg/kg intravenously of norephinephrine (NOR) and possible mortality was looked for up to 60 minutes later.
(§2) The table 4 gives the ED₅₀-values of a number of the compounds under consideration. As used herein, the ED₅₀-value represents the dose which protects 50% of the animals from apomorphine-, tryptamine- or norepinephrine-induced phenomena.

Test [2] concerns beagle dogs. Briefly: The apomorphine test in dogs (APO-dog). The settings on record: Canis lupus familiaris, 1 h; dose protecting 50% of animals from emesis; compound subcutaneously or orally; 0.31 mg/kg (s.c.) apomorphine one hour thereafter; read-out: (APO)-dog test, ED₅₀ in mg/kg. As for the experimental part:
The method used is described by P.A.J. Janssen and C.J.E. Niemegeers in Arzneim.-Forsch. (Drug Res.), 9,765-767 (1959). The compounds listed in table 4 were administered subcutaneously or orally to beagle dogs at different doses and the animals were challenged one hour thereafter with a standard dose of 0.31 mg/kg (s.c.) of apomorphine.
The table 4 gives the ED₅₀-values of a number of the compounds under consideration. As used herein, the ED₅₀ value represents the dose which protects 50% of the animals from emesis.

The test system of test [3] is adult male Wistar rats. Briefly: Combined test in rats: tryptamine (TRY) test. The settings on record: Rattus norvegicus, 1.5 h, compound subcutaneously or orally, 40 mg/kg tryptamine i.v. at 90 minutes, read-out: Combined test in rats. As for the experimental part:
as §1, §2

Test [4] relates to adult male Wistar rats. Briefly: Combined test in rats: apomorphine (APO) test. Conditions: Rattus norvegicus, 0.5 h, read-out: Combined test in rats, ED₅₀ in mg/kg (APO). As for the experimental part: as §1, §2
Where [5] appears, read: protection from tryptamine-induced bilateral tonic seizures, ED₅₀ in mg/kg (TRY)-convulsions.
Where [6] appears, read: protection from tryptamine-induced hyperaemia of the ears, ED₅₀ in mg/kg (TRY)-hyperaemia.
Setting [7] is: dose protecting 50% of animals from apomorphine-induced agitation and stereotypic chewing, compound subcutaneously or orally, 1.25 mg/kg apomorphine hydrochloride i.v. at 30 minutes.

Consider `Cc1nc2n(c(=O)c1CCN1CCC(c3n[nH]c4cc(F)ccc34)CC1)CCS2` [Compound 2, 6-[2-[4-(6-fluoro-1H-indazol-3-yl)-1-piperidinyl]ethyl]-2,3-dihydro-7-methyl-5H-thiazolo[3,2-a]pyrimidin-5-one], for which the ED50 in test [1] came to 0.31 mg/kg; in test [2], 0.002 mg/kg; in test [3] (setting [5]), 5 mg/kg; in test [3] (setting [6]), 0.005 mg/kg; in test [4] it was 5 mg/kg.
Take `Cc1nc2ccccn2c(=O)c1CCN1CCC(c2nn(-c3ccc(F)cc3)c3cc(F)ccc23)CC1` [Compound 9]: the ED50 in test [1] was 5 mg/kg; in test [3] (setting [5]), 5 mg/kg; in test [3] (setting [6]), 0.08 mg/kg; in test [4], more than 10 mg/kg.
For `Cc1nc2ccccn2c(=O)c1CCN1CCC(c2nn(C)c3cc(F)ccc23)CC1` [Compound 11], the ED50 in test [1] worked out at 0.08 mg/kg; in test [2], 0.12 mg/kg; in test [3] (setting [5]), 0.31 mg/kg; in test [3] (setting [6]), 0.005 mg/kg; in test [4] it was 5 mg/kg.
`Cc1nc2n(c(=O)c1CCN1CCC(c3n[nH]c4cc(F)ccc34)CC1)CCCC2` [Compound 13]: the ED50 in test [1] was 0.31 mg/kg; in test [2], 0.015 mg/kg; in test [3] (setting [5]), 1.25 mg/kg; in test [3] (setting [6]), 0.02 mg/kg; in test [4], more than 10 mg/kg.
`Cc1nc2sccn2c(=O)c1CCN1CCC(c2nn(-c3ccc(F)cc3)c3cc(F)ccc23)CC1` [Compound 16]: the ED50 was more than 10 mg/kg in test [1], 5 mg/kg in test [3] (setting [5]), 0.08 mg/kg in test [3] (setting [6]) and more than 10 mg/kg in test [4].
`Cc1nc2sccn2c(=O)c1CCN1CCC(c2n[nH]c3cc(F)ccc23)CC1` [Compound 17]: the ED50 in test [1] came to 2 mg/kg; in test [2] it was 0.004 mg/kg; in test [3] (setting [5]) it was 5 mg/kg; in test [3] (setting [6]), 0.03 mg/kg; in test [4], 5 mg/kg.
For the compound `Cc1nc2sccn2c(=O)c1CCN1CCC(c2nn(C)c3cc(F)ccc23)CC1` [Compound 18], the ED50 in test [1] was 1.25 mg/kg; in test [2], 0.2 mg/kg; in test [3] (setting [5]), 1.25 mg/kg; in test [3] (setting [6]), 0.005 mg/kg; in test [4] (setting [7]), 5 mg/kg.
`Cc1nc2scc(C)n2c(=O)c1CCN1CCC(c2nn(-c3ccc(F)cc3)c3cc(F)ccc23)CC1` [Compound 20]: the ED50 in test [1] is more than 10 mg/kg; in test [3] (setting [5]), not below 10 mg/kg; in test [3] (setting [6]) it was 0.08 mg/kg; in test [4], more than 10 mg/kg.
Take `Cc1nc2scc(C)n2c(=O)c1CCN1CCC(c2nn(C)c3cc(F)ccc23)CC1` [Compound 21]: the ED50 worked out at 0.31 mg/kg in test [1]; 0.12 mg/kg in test [2]; 0.08 mg/kg in test [3] (setting [5]); 0.005 mg/kg in test [3] (setting [6]); 1.25 mg/kg in test [4].
In the same order, the values of `Cc1nc2n(c(=O)c1CCN1CCC(c3nn(C)c4cc(F)ccc34)CC1)CCS2` [Compound 25] are 0.31 mg/kg, less than 0.015 mg/kg, 1.25 mg/kg, 0.01 mg/kg and more than 10 mg/kg.
In the case of `Cc1nc2c(C)cccn2c(=O)c1CCN1CCC(c2nn(Cc3ccccc3)c3cc(F)ccc23)CC1` [Compound 29], the ED50 in test [1] was 1.25 mg/kg; in test [2] it was 0.004 mg/kg; in test [3] (setting [5]), 5 mg/kg; in test [3] (setting [6]) it was not above 0.16 mg/kg; in test [4] (setting [7]), 1.25 mg/kg.
In the case of `COc1ccc(Cn2nc(C3CCN(CCc4c(C)nc5n(c4=O)CCS5)CC3)c3ccc(F)cc32)cc1` [Compound 30, 6-[2-[4-[6-fluoro-1-[(4-methoxyphenyl)methyl]-1H-indazol-3-yl]-1-piperidinyl]ethyl]-2,3-dihydro-7-methyl-5H-thiazolo[3,2-a]pyrimidin-5-one], the ED50 in test [1] was 5 mg/kg; in test [2] it was more than 0.63 mg/kg; in test [3] (setting [5]), 10 mg/kg; in test [3] (setting [6]), 0.08 mg/kg; in test [4], more than 10 mg/kg.
As to `COc1ccc2c(C3CCN(CCc4c(C)nc5sccn5c4=O)CC3)n[nH]c2c1` [Compound 34], the ED50 in test [1] was 1.25 mg/kg; in test [2], more than 0.01 mg/kg; in test [3] (setting [5]), more than 10 mg/kg; in test [3] (setting [6]), 1.25 mg/kg; in test [4] (setting [7]), more than 10 mg/kg.
